This assay relates to hedgehog-responsive Gli-Luc reporter-construct. Put plainly: Gli-Luc hedgehog pathway reporter assay in [10T1/2(s12)] cells. In kind it is cell-based, murine. The conditions noted are these: Table 1. As for the experimental part:
To measure the hedgehog agonist activity of compounds, we used [10T1/2(s12)] cells containing the hedgehog-responsive Gli-Luc reporter-construct. In each MTP (MicroTiter Plate; 96-well plate), 10,000-20,000 cells were plated per well, in full media (10% FBS). After about 24-48 hr, plates were switched to low-serum media (=0.5%. FBS). Subsequently, a test compound was added at 1-5 μM in the presence or absence of octyl-hedgehog (see below). After another 24 hr, the media from the MTPs was discarded and replaced with luciferase assay-mix, containing lysis-buffer with luciferase substrate. The plates were incubated at RT for about 15-30 min and read in a luminometer.
Plates were incubated for 48 hr before switching to low-serum. Compounds were screened at 1-2 μM in the presence of Hh protein (0.01 μg/ml; EC30=about 30% of max-induced activity).
Plates were incubated for 24 hr before switching to low-serum. Compounds were screened at 5 μM without adding Hh protein.
From Screen A, we identified hits identified in FIGS. 32 and 33. The 1,4-diaminocyclohexane subunit of the compounds of FIG. 32 which include this moiety have the two amino substituents disposed in a trans-relationship, e.g., both substituents equatorial on the cyclohexane subunit. These hits were confirmed in Screen B. The data shown in FIGS. 34a and 34b essentially involved dosing the two compounds in both assays (Gli-Luc & SV-Luc).
The data from the Gli-Luc assay is converted to percent activity where full activity with Hh protein is set at 100% (FIG. 35; Table 1). […] Furthermore, the compounds show a more striking induction in the presence of hedgehog (EC50=0.2-0.3 μM, ECmax=70-90% of max induced activity with Hh protein), indicating a synergy between the compounds and Hh protein, consistent with the compounds serving as agonists for the hedgehog pathway.

pEC50: −log10 of the molar value.

On to `CN[C@H]1CC[C@H](N(Cc2ccnc(-c3ccc(S(N)(=O)=O)s3)c2)C(=O)c2sc3ccccc3c2Cl)CC1` [N′′′], for which the pEC50 is over 5.30.
Under `COc1ccc(CN(C(=O)c2sc3ccccc3c2Cl)[C@H]2CC[C@H](N)CC2)cc1-c1ccccc1` [F′] stands over 5.00.
Under `CN[C@H]1CC[C@H](N(Cc2cccc(-c3ccc(S(=O)(=O)n4c(C)ccc4C)s3)c2)C(=O)c2sc3ccccc3c2Cl)CC1` [R′′] stands over 6.00.
Turning to `COc1ccc(CN(C(=O)c2sc3ccccc3c2Cl)C2CCC(N)CC2)cc1-c1cccnc1` (stereo not shown) [Y], the pEC50 was over 5.00.
As to `CN[C@H]1CC[C@H](N(Cc2cc(-c3ccncc3)cs2)C(=O)c2sc3cccc(F)c3c2Cl)CC1` [A′′′], the pEC50 is over 7.30.
As for `CN[C@H]1CC[C@H](N(Cc2cccc(-c3ccc(S(=O)(=O)NC(C)=O)s3)c2)C(=O)c2sc3ccccc3c2Cl)CC1` [O′′], the figure is over 6.00; as for `CN[C@H]1CC[C@H](N(Cc2cccc(-c3nccnc3C)c2)C(=O)c2sc3ccccc3c2Cl)CC1` [U′], over 6.00.
Under `CN[C@H]1CC[C@H](N(Cc2cc(-c3cccnc3)cs2)C(=O)c2sc3c(F)ccc(F)c3c2Cl)CC1` [V′′] stands over 8.30.
On to `COc1ccc(CN(C(=O)c2sc3ccccc3c2Cl)C2CCC(N)CC2)cc1-c1ccc(C(C)=O)cc1` (stereo not shown) [H], for which the pEC50 is over 6.00.
As for `CN[C@H]1CC[C@H](N(Cc2cccc(-c3ccc(OC)nc3)c2)C(=O)c2sc3ccccc3c2Cl)CC1` [V′], the figure is over 6.00; as for `CN[C@H]1CC[C@H](N(Cc2cccc(Nc3ccccn3)c2)C(=O)c2sc3ccccc3c2Cl)CC1` [X′], over 5.00; as for `CN[C@H]1CC[C@H](N(Cc2cc(-c3ccncc3)cs2)C(=O)c2sc3c(F)ccc(F)c3c2Cl)CC1` [W′′], over 8.30.
Take `COc1ccc(CN(C(=O)c2sc3ccccc3c2Cl)C2CCC(N)CC2)cc1-c1cccc(C#N)c1` (stereo not shown) [X]: the pEC50 was over 5.00.
As for `CN[C@H]1CC[C@H](N(Cc2cc(-c3ccco3)cs2)C(=O)c2sc3ccccc3c2Cl)CC1` [P′′], the figure is over 5.00; as for `CN[C@H]1CC[C@H](N(Cc2cccc(-c3ccncc3)c2)C(=O)c2sc3ccccc3c2Cl)CC1` [H′′′], over 7.30.
As for `CN[C@H]1CC[C@H](N(Cc2cncc(-c3ccc(S(N)(=O)=O)s3)c2)C(=O)c2sc3ccccc3c2Cl)CC1` [K′′′], the figure is over 5.30; as for `NC1CCC(N(Cc2cc(-c3ccc(F)cc3)cs2)C(=O)c2sc3ccccc3c2Cl)CC1` (stereo not shown) [J], over 6.00; as for `CNC1CCC(N(Cc2cccc(-c3ccc(C)nc3)c2)C(=O)c2sc3ccccc3c2Cl)CC1` (stereo not shown) [N], over 6.00.
`CN[C@H]1CC[C@H](N(Cc2cccc(N3CCC4(CC3)OCCO4)c2)C(=O)c2sc3ccccc3c2Cl)CC1` [Y′]: the pEC50 was over 5.00.
As for `CN[C@H]1CC[C@H](N(Cc2cncc(-c3ccc(C#N)cc3)c2)C(=O)c2sc3ccccc3c2Cl)CC1` [S′′], the pEC50 is over 5.00.
As for `COc1ccc(CN(C(=O)c2sc3ccccc3c2Cl)C2CCC(O)CC2)cc1-c1ccc(C#N)cc1` (stereo not shown) [A′], the figure is over 5.00; as for `CN[C@H]1CC[C@H](N(Cc2cccc(-c3ccc(S(=O)(=O)NC(C)(C)C)s3)c2)C(=O)c2sc3ccccc3c2Cl)CC1` [L′′], over 6.00; as for `CN[C@H]1CC[C@H](N(Cc2cccc(Oc3ccccc3)c2)C(=O)c2sc3ccccc3c2Cl)CC1` [C′′], over 5.00.
For `NC1CCC(N(Cc2ccc(-c3nccs3)cc2)C(=O)c2sc3ccccc3c2Cl)CC1` (stereo not shown) [F], the pEC50 was over 5.00.
For the molecule `COc1ccc(CN(C(=O)c2sc3ccccc3c2Cl)[C@H]2CC[C@H](N)CC2)cc1-c1cccnc1` [D′], the pEC50 is over 5.00.
Under `CN[C@H]1CC[C@H](N(Cc2ccc3c(c2)CCO3)C(=O)c2sc3ccccc3c2Cl)CC1` [E′′] stands over 5.00.
As for `CN[C@H]1CC[C@H](N(Cc2ccnc(-c3cccnc3)c2)C(=O)c2sc3ccccc3c2Cl)CC1` [S′′′], the figure is over 6.00; as for `CN[C@H]1CC[C@H](N(Cc2cccc(-c3ccc(C#N)cc3)c2)C(=O)c2sc3ccccc3c2Cl)CC1` [I′], over 6.00.

One may read the pEC50 as the negative decadic logarithm of the EC50, by convention in mol/L.
